# Data as given in patent US20090062355A1, “Pharmaceutical Product” (Takeda Pharmaceutical Company Limited, priority 2006, published 2009).
# Key:
# [1] = test system: mouse macrophage cell line RAW264.7 cells; experiment: Suppressive action on expression caused by gene induction by LPS stimulation (DNA Chip); assay type: cell-based; conditions: 100 nM + LPS 10 ng/mL, 6 hr
# Method: A suppressive effect of test compound 1 (compound 72 of • Reference Example B66) on the production of various mediators by lipopolysaccharide (LPS), which is a TLR4 agonist, in mouse macrophage cell line RAW264.7 cells was examined. The day before the experiment, the cells were suspended to 5×10^5 cells/mL in RPMI1640 medium supplemented with 10% inactivated fetal bovine serum, plated on a plate and incubated at 37° C., 5% CO2/95% air overnight. The medium was changed to RPMI1640 medium supplemented with 1% inactivated fetal bovine serum, and test compound 1 (final concentration 100 nM) and LPS (final concentration 10 ng/mL) were added. After culture for 6 hr, RNA was prepared by a conventional method and gene was analyzed using DNA Chip (Mu73A, Affimetrix) and Gene Spring ver. 4. The test substance was dissolved in N,N-dimethylformamide to 10 mM and diluted with a medium.
# [2] = test system: mouse macrophage cell line RAW264.7 cells; experiment: Suppressive action on production of cytokine from LPS stimulated macrophage (BioPlex cytokine assay); assay type: cell-based; conditions: 100 nM + LPS 10 ng/mL, overnight
# Method: A suppressive effect of test compound 1 (compound 72 of Reference Example B66) on the production of various cytokines by lipopolysaccharide (LPS), which is a TLR4 agonist, using mouse macrophage cell line RAW264.7 cells was examined. The day before the experiment, the cells were suspended to 1×10^6 cells/mL in RPMI1640 medium supplemented with 10% inactivated fetal bovine serum, plated on a 96 well microplate at 0.1 mL/well and incubated at 37° C., 5% CO2/95% air overnight. The medium was changed, and test compound 1 (final concentration 100 nM) and LPS (final concentration 10 ng/mL) were added. After overnight culture, the content of cytokine in the culture supernatant was quantified by BioPlex cytokine assay (Bio-Rad). Test compound 1 was dissolved in dimethyl sulfoxide (DMSO) to 10 mM, diluted with RPMI1640 medium supplemented with 1% inactivated fetal bovine serum to 0.1 mM, further diluted with the medium to 10-fold concentration of the final concentration and 1/10 thereof was added.
compound,measurement,setting,value
"CCOC(=O)C1=CCCC[C@H]1S(=O)(=O)Nc1ccc(F)cc1Cl [test compound 1, ethyl (6R)-6-[(2-chloro-4-fluoroanilino)sulfonyl]-1-cyclohexene-1-carboxylate]",gene variation by LPS stimulation,[1]; all genes analyzed that showed variation by LPS,suppressed almost all the gene variation analyzed
same,expression of mRNA (fluorescence intensity): MMP-9,"[1]; control 0, LPS 3571.5",352.6
same,expression of mRNA (fluorescence intensity): bcl-3,"[1]; control 0, LPS 7512.6",158.7
same,expression of mRNA (fluorescence intensity): Guanylate binding protein-2,"[1]; control 0, LPS 8931.2",19.4
same,expression of mRNA (fluorescence intensity): RANTES,"[1]; control 0, LPS 12030.1",34.8
same,expression of mRNA (fluorescence intensity): IL-1 beta,"[1]; control 0, LPS 18712.2",424.9
same,expression of mRNA (fluorescence intensity): Cytokine inducible SH2-containing protein,"[1]; control 0, LPS 22669.3",2092.5
same,expression of mRNA (fluorescence intensity): MCP-3,"[1]; control 2.4, LPS 3159.0",46.5
same,expression of mRNA (fluorescence intensity): Adenosine A2b receptor,"[1]; control 2.7, LPS 2092.2",141.9
same,expression of mRNA (fluorescence intensity): inducible nitric oxide synthase,"[1]; control 9.3, LPS 1251.6",125.9
same,expression of mRNA (fluorescence intensity): COX-2,"[1]; control 24.4, LPS 13981.9",71.9
same,expression of mRNA (fluorescence intensity): CCR1,"[1]; control 26.5, LPS 1877.4",137.9
same,expression of mRNA (fluorescence intensity): IL-6,"[1]; control 26.7, LPS 5345.6",0
same,expression of mRNA (fluorescence intensity): IP-10,"[1]; control 40.1, LPS 12954.7",30.7
same,expression of mRNA (fluorescence intensity): Histidine decarboxylase,"[1]; control 44.3, LPS 4472.2",21.1
same,expression of mRNA (fluorescence intensity): IL-4 receptor,"[1]; control 84.4, LPS 7015.8",160.6
same,expression of mRNA (fluorescence intensity): MCP-1,"[1]; control 115.6, LPS 24184.7",336.8
same,expression of mRNA (fluorescence intensity): Fas antigen,"[1]; control 132.7, LPS 2507.5",202.7
same,expression of mRNA (fluorescence intensity): A20,"[1]; control 143.9, LPS 1044.3",204.0
same,expression of mRNA (fluorescence intensity): IL-1 receptor antagonist,"[1]; control 156.9, LPS 21942.3",538.2
same,expression of mRNA (fluorescence intensity): P2X4,"[1]; control 193.0, LPS 1239.3",227.0
same,expression of mRNA (fluorescence intensity): plasminogen activator inhibitor,"[1]; control 199.1, LPS 15207.5",67.5
same,expression of mRNA (fluorescence intensity): TNF receptor associated factor,"[1]; control 213.6, LPS 2457.3",311.4
same,expression of mRNA (fluorescence intensity): IL-10,"[1]; control 221.8, LPS 6617.9",128.1
same,expression of mRNA (fluorescence intensity): Janus kinase 2,"[1]; control 228.3, LPS 2175.1",310.9
same,expression of mRNA (fluorescence intensity): argininosuccinate synthetase,"[1]; control 376.7, LPS 8623.2",478.9
same,expression of mRNA (fluorescence intensity): Major histocompatibility complex,"[1]; control 378.5, LPS 3399.6",353.0
same,expression of mRNA (fluorescence intensity): serum amyloid A,"[1]; control 393.1, LPS 24253.2",1041.0
same,expression of mRNA (fluorescence intensity): Caspase-11,"[1]; control 436.0, LPS 6975.7",763.5
same,expression of mRNA (fluorescence intensity): Phosphatase PAC1,"[1]; control 653.7, LPS 12520.7",765.9
same,expression of mRNA (fluorescence intensity): G-CSF,"[1]; control 698.4, LPS 18440.5",844.9
same,expression of mRNA (fluorescence intensity): IL-18,"[1]; control 708.7, LPS 4881.4",429.4
same,expression of mRNA (fluorescence intensity): MIP-2,"[1]; control 819.2, LPS 12542.9",3055.0
same,expression of mRNA (fluorescence intensity): TNF receptor,"[1]; control 906.2, LPS 24864.6",3467.0
same,expression of mRNA (fluorescence intensity): Fc receptor,"[1]; control 1244.4, LPS 20683.4",982.5
same,expression of mRNA (fluorescence intensity): Interferon regulatory factor,"[1]; control 1491.7, LPS 7554.9",1356.3
same,expression of mRNA (fluorescence intensity): Galectin-9,"[1]; control 1904.3, LPS 19639.3",3639.2
same,expression amount of cytokines: IL1beta,"[2]; control 0, LPS 97",2 pg/mL
same,expression amount of cytokines: IL12(p40),"[2]; control 3, LPS 18",4 pg/mL
same,expression amount of cytokines: IL2,"[2]; control 3, LPS 20",8 pg/mL
same,expression amount of cytokines: IL3,"[2]; control 3, LPS 22",3 pg/mL
same,expression amount of cytokines: IFNgamma,"[2]; control 9, LPS 31",8 pg/mL
same,expression amount of cytokines: IL17,"[2]; control 9, LPS 50",13 pg/mL
same,expression amount of cytokines: KC,"[2]; control 10, LPS 79",22 pg/mL
same,expression amount of cytokines: IL12(p70),"[2]; control 12, LPS 48",13 pg/mL
same,expression amount of cytokines: IL1alpha,"[2]; control 21, LPS 74",47 pg/mL
same,expression amount of cytokines: IL10,"[2]; control 25, LPS 80",20 pg/mL
same,expression amount of cytokines: RANTES,"[2]; control 31, LPS 1520",48 pg/mL
same,expression amount of cytokines: TNFalpha,"[2]; control 48, LPS 10483",125 pg/mL
same,expression amount of cytokines: GM-CSF,"[2]; control 53, LPS 135",85 pg/mL
same,expression amount of cytokines: IL6,"[2]; control 82, LPS 233",152 pg/mL
